{
  "source": "patent US20230357363A1",
  "about": "“PROTEIN DOUBLE-SHELL NANOSTRUCTURES AND THEIR USE” (The Board of Trustees of the Leland Stanford Junior …, priority 2020, published 2023)",
  "test_system": "BODIPY-conjugated pKID domain of CREB protein",
  "assay": "Fluorescence polarization assay of MBP-KIX-apoferritin with BODIPY-conjugated pKID",
  "type": "binding",
  "conditions": "FP assay, protein titrated against BODIPY-pKID, read 30 minutes after mixing",
  "description": "FIGS. 1A-1D. The design of double-shell system. FIG. 1A. The double shell system is shown by cartoon with apoferritin as inner cage, MBP as outer cage, and small cargo proteins in the middle portion. FIG. 1B. Strategy of plasmid construction. The cargo protein KIX C-terminus is fused to the apoferritin N-terminus with the C-terminal 668-672 residues of KIX and N-terminal 1-5 residues of apoferritin truncated for stability. Several mutations (shown as lightning) were also incorporated on the interface between KIX and apoferritin to enhance stability. The MBP tag is fused to the KIX N-terminus. FIG. 1C. Design of mutations that stabilize the KIX domain of CBP on the apoferritin complex. […] Fluorescence polarization assay using the BODIPY-conjugated phosphorylated KID domain of CREB and KIX, MBP-KIX-apoferritin construct 3, or MBP-apoferritin. […]\nFluorescence polarization (FP) using the MBP-KIX-apoferritin and the BODIPY-conjugated phosphorylated pKID domain of CREB was performed as described previously^16. […] Phosphorylation efficiency of pKID, which was assessed using a SDS-gel containing Phos-tag™ Acrylamide (FUJIFILM), was almost 100%. pKID was purified using the phosphoprotein enrichment kit (Takara). […] Molar concentration of KIX, MBP-KIX-apoferritin construct 3, and MBP-apoferritin was calculated as a monomer. FP was measured 30 minutes after mixing using INFINITE M1000 PRO (TECAN). […]",
  "data": [
    {"substance": "MKF: 24-mer MBP-KIX-apoferritin fusion protein double-shell nanostructure from construct 3 (T27C, A31C, E169C, C177S, E237C)", "values": [
      {"measurement": "binding affinity of KIX for the BODIPY-conjugated pKID domain of CREB (function of KIX in the 24-mer complex)", "value": "still maintained its function"}
    ]}
  ]
}
